Test results published in PubChem BioAssay (NCI).
“And” between values parts separate entries of the source, which are not always exact repeats. Equal entries are not always repeated.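 Growth conditions: 96-well plates. Treatment: test compound, 48 hours, 5 concentrations. Analysis: linear interpolation between bracketing concentrations; unreached endpoints set to highest concentration. GI50: concentration for 50% inhibition of growth. The concentration for full growth arrest is given as TGI.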

Columns and labels:
Assay in all cases: DTP human tumour cell line panel, 48 h
SK-MEL-5 melanoma = test system: SK-MEL-5 melanoma
SK-OV-3 ovarian = test system: SK-OV-3 ovarian
CAKI-1 renal = test system: CAKI-1 renal
HT29 colon = test system: HT29 colon
U251 CNS = test system: U251 CNS
HL-60(TB) leukemia = test system: HL-60(TB) leukemia
KM12 colon = test system: KM12 colon
HOP-62 NSCLC = test system: HOP-62 NSCLC
SNB-75 CNS = test system: SNB-75 CNS
OVCAR-8 ovarian = test system: OVCAR-8 ovarian

Row | Structure (SMILES) | GI50 (SK-MEL-5 melanoma) | TGI (SK-MEL-5 melanoma) | GI50 (SK-OV-3 ovarian) | TGI (SK-OV-3 ovarian) | GI50 (CAKI-1 renal) | TGI (CAKI-1 renal) | GI50 (HT29 colon) | TGI (HT29 colon) | GI50 (U251 CNS) | TGI (U251 CNS) | GI50 (HL-60(TB) leukemia) | TGI (HL-60(TB) leukemia) | GI50 (KM12 colon) | TGI (KM12 colon) | GI50 (HOP-62 NSCLC) | TGI (HOP-62 NSCLC) | GI50 (SNB-75 CNS) | TGI (SNB-75 CNS) | GI50 (OVCAR-8 ovarian) | TGI (OVCAR-8 ovarian)
1 | CN(CCOc1ccc(C#N)cc1)CCOc1ccc(C#N)cc1 | 78.6 µM | > 100 µM | > 100 µM | > 100 µM | 74.6 µM | > 100 µM | > 100 µM | > 100 µM | 81.4 µM | > 100 µM | 20.7 µM | > 100 µM | 16.6 µM | 66.2 µM | > 100 µM | > 100 µM | > 100 µM | > 100 µM | 29 µM | > 100 µM
2 | CCCCN(Cc1ccc(F)cc1)c1ccc(CO)c(Cl)c1 | 14.3 µM | 27.5 µM | 15 µM | 28.2 µM | 11.7 µM | 25.5 µM | 13.7 µM | 29.1 µM | 4.57 µM | 18.9 µM | 14.1 µM | 34 µM | 17.5 µM | 33 µM | 11.1 µM | 23.4 µM | 13.1 µM | 26.1 µM | 14.2 µM | 28.5 µM
3 | CC(=O)c1cc([N+](=O)[O-])ccc1OCC(=O)O |  | > 100 µM |  | > 100 µM |  | > 100 µM |  | > 100 µM |  | > 100 µM |  | > 100 µM |  | > 100 µM |  | > 100 µM |  | > 100 µM |  | > 100 µM
4 | CCOc1ccc(NCc2cc(OC)c(OC)c(OC)c2)cc1 |  | 52.9 µM and > 60.6 µM |  | 22.8 µM and 24.8 µM | 2.01 µM and 7.61 µM | > 100 µM |  | 8.98 µM and 11.8 µM |  | 19.3 µM and 22.3 µM |  | 19.2 µM and 33.8 µM |  | > 81.5 µM and 46.4 µM |  | > 36.6 µM and 24.7 µM |  | > 100 µM | 5.75 µM and 2.31 µM | > 80.7 µM and 62.6 µM
5 | CCCCCCCCCCCCCC(=O)CBr |  | 26.3 µM |  | 43.2 µM |  | 3.13 µM |  | 30.5 µM |  | 28.8 µM |  | 3.08 µM |  | 16.9 µM |  | 50.6 µM |  | 16 µM |  | 35.6 µM
6 | CSc1nc2c(nc(N)n2C2OCC(O)C(O)C2O)c(=O)n1C (configuration not stated) |  | > 100 µM |  | > 100 µM |  | > 100 µM |  | > 100 µM |  | > 100 µM |  | > 100 µM |  | > 100 µM |  | > 100 µM |  | > 100 µM |  | > 100 µM
7 | Cc1cc2c3ccccc3n(C)c2c2c1C(=O)C=CC2=O |  | 51.6 µM |  | 53.4 µM |  | 28.9 µM |  | 20.5 µM |  | 32.6 µM |  | > 68 µM |  | 33.6 µM |  | 49.9 µM |  | 60 µM |  | 62.7 µM
